Data set [1] can be described thus: Absorption of capsules of Capsule formulation 5 in Beagle dogs (Example 3-4). Type of data set: in vivo. The following applies: dog, plasma; mean of four Beagle dogs, oral, 2.67 mg/kg; read-out: BA % (Mean, average bioavailability). The method, then: Capsule of Capsule formulation 5 as prepared in Example 2, 10 mg of Compound I per capsule.
Solutions: 5% DMSO+95% (6% HP-β-CD solution)
Animals: Four Beagle Dogs.
(1) Administration of capsules. All animals fasted for 12 h or longer before drug administration, and food was supplied 4 h after drug administration, with always ad libitum access to water. Beagle dogs were orally given the capsule of Capsule formulation 5 as prepared in Example 2 (two capsules for each Beagle, 10 mg of Compound I per capsule) in a single dose, and 200 μL of blood was collected for each animal, via the small saphenous vein, immediately prior to the administration (0 h) and 0.17 h, 0.50 h, 0.75 h, 1.0 h, 2.0 h, 4.0 h, 6.0 h, 8.0 h, 12 h and 24 h after the administration. The collected blood was stored in a dry tube with heparin (normal saline containing 0.1% heparin sodium). (2) Plasma preparation. The whole blood samples collected in step (1) were subject to centrifugation at a low speed (8000 r/min, 6 min, 4° C.) to separate the plasma (the whole blood was stored in a mobile freezer at about 0 to 4° C., and plasma had to be separated within 30 minutes after the blood collection), and the plasma was kept in dark in a freezer at −70° C. (or lower) for future analysis.

Data set [2] has as its system Dahl/ss rats with salt induced renal injury. Briefly: Efficacy test in salt-sensitive rats with salt induced renal injury (Example 6). The data set is classed as in vivo. The following applies: Dahl/ss rats on 4% NaCl diet. The method, then: Animals: Male Dahl/Ss Rats
Solid dispersions of Compound I (Compound I:PVPK30=1:8 (w/w)): Solid dispersions of Compound I was formulated with suitable amount of sterile water for injection into suspensions having concentrations of 0.03, 0.10, 0.30 and 1.00 mg/mL, respectively. The suspensions were prepared immediately before use. […]
One week before the experiment, the blood pressures were measured twice in rats by the tail-cuff blood pressure measurement so that rats could accommodate to the blood pressure monitoring operation. Then, immediately before the test, the blood pressure was determined and used as the baseline value. […]
Blood pressure (systolic blood pressure, SBP) measurement: Blood pressure was measured for 6 weeks, once a week, and the blood pressure changes in these groups were analyzed.
Pathological examination for the kidney and heart: At the end of the study, rats were sacrificed painlessly, from which bilateral kidneys and the heart were collected for histopathological analysis. The kidneys were stained using Hematoxylin-Eosin (HE) to semi-quantitatively evaluate renal injuries. The thickness of the left ventricular wall was measured for each heart to analyze the heart injury. […]

Data set [3] in a line: Safety, tolerability and pharmacokinetics in healthy subjects, single dose (Example 7). The following applies: human, plasma, oral. The data set is classed as in vivo, human. The method, then: (§1) Five groups of healthy subjects were given capsules at doses of 0.5 mg (1 capsule, 0.5 mg of Compound I per capsule), 1.0 mg (2 capsules, 0.5 mg of Compound I per capsule), 2.5 mg (1 capsule, 2.5 mg of Compound I per capsule), 10 mg (1 capsule, 10 mg of Compound I per capsule), and 30 mg (3 capsules, 10 mg of Compound I per capsule), each group containing 8 subjects. The drug administration was done only once.
(§2) The capsules mentioned above were the ones prepared in Example 2, i.e., the capsules of Capsule formulation 3 (0.5 mg of Compound I per capsule), Capsule formulation 4 (2.5 mg of Compound I per capsule), and Capsule formulation 5 (10 mg of Compound I per capsule).
(§3) Plasma samples were collected to measure plasma drug concentration, and the pharmacokinetic parameters were analyzed using the non-compartment model. Serum samples were collected to measure serum potassium levels.

For data set [4], the system named is healthy subjects. Described as above. Type of data set: in vivo, human. The following applies: single dose 0.5 to 30 mg/day. The method, then: as §1, §2, §3
Data set [5] in a line: Safety, tolerability and pharmacokinetics in healthy subjects, multiple doses (Example 8). The data set is classed as in vivo, human. To be noted: human, plasma, oral, healthy subjects, 14 days, read-out: average steady-state AUC0-24 (AUCtau). The method, then:
(§4) Two groups of healthy subjects were given capsules once a day at daily doses of 2.5 mg (1 capsule for each administration, 2.5 mg of Compound I per capsule), and 5.0 mg (2 capsules for each administration, 2.5 mg of Compound I per capsule), respectively, each group containing 6 subjects. The administration continued for 14 consecutive days. The capsules used in this study were of Capsule formulation 4 prepared in Example 2.
as §3

The test system of data set [6] is healthy subjects. The description is as above. The data set is classed as in vivo, human. The following applies: for average steady-state AUC0-24 (AUCtau): 14 days. As to the method: as §4, §3
Data set [7] is described as follows: Effect of surfactants on absorption in SD rats (Example 4-1). To be noted: rat, plasma, oral, 1 mg/kg.
Protocol: Blood collection: The animals were fixed and had their tails warmed in a water bath 10 min prior to blood collection; about 100 μL of blood was collected through the tail vein for each animal and put into an anticoagulation tube containing hepatin; the blood samples were subject to centrifugation at 8000 rpm for 6 min at 4° C. to obtain plasma samples, which had to be obtained within 30 minutes after blood was collected; the plasma samples were stored in a freezer at −80° C. for future tests.
Sample analysis: 50 μL of each plasma sample from the freezer was transferred to a centrifugal tube; 100 μL of water and 400 μL of MTBE standard solution (50 ng/mL) were added into the tube and well mixed with the plasma; the obtained mixture was mixed for 10 minutes using a vortex mixer and then subject to centrifugation for 5 minutes (12000 r/min); 300 μL of the supernatant was transferred to another centrifugal tube and blown dry with nitrogen gas; the resultant substance was dissolved in 200 μL of a solution consisting of methanol and water at a ratio of 1:1, of which 20 μL was used for the LC-MS/MS measurement.
Data processing: the compound concentration was output by Analyst 1.6.1 (AB Sciex); the means, standard deviations, and variation coefficients were calculated using Microsoft Excel (no calculation needed if these parameters were directed output by Analyst 1.6.1), and pharmacokinetic parameters were determined using the NCA analysis object in Pharsight Phoenix 6.3.
The mark [8] stands for this setting: healthy subjects, multiple doses 2.5 mg/day.

Structures are written as SMILES. “Also recorded” adds a separate entry of the source.

Usually half-life stands for the time needed for the level to fall by half in the phase considered. `N#Cc1ccc(N2N=C3c4ccc(C(=O)N5CCC(O)CC5)nc4CC[C@@H]3[C@@H]2C2CCCC2)cc1Cl` [Compound I, 2-chloro-4-[(3S,3aR)-3-cyclopentyl-7-(4-hydroxylpiperidine-1-carbonyl)-3,3a,4,5-tetrahydro-2H-pyrazolo[3,4-f]quinolin-2-yl]benzonitrile]: the bioavailability in data set [1] came to 56.5%; in data set [7], 64.7%. For the same molecule, the “AUC0-24 at which the drug takes effect (undulation point of SBP or UACR vs AUC0-24 curve)” value in data set [2] (0.3-10 mg/kg/day intragastric twice a day, 42 days) was 100 ng·h/mL. The “SBP and UACR change (observation)” value in data set [2] (beyond AUC of 100 h*ng/mL) is “SBP and UACR were significantly decreased”. The half-life was 61.5 h in data set [3] (single dose 0.5 mg); 60.9 h in data set [3] (single dose 1.0 mg); 53.3 h in data set [3] (single dose 2.5 mg); 52.8 h in data set [3] (single dose 10 mg); 73.9 h in data set [3] (single dose 30 mg); about 60 h in data set [3] (single dose 0.5 to 30 mg/day). For the same molecule, the AUC(0-t) in data set [3] (single dose 0.5 mg capsule, read-out: AUC0-24) is 162 ng·h/mL; in data set [3] (single dose 1.0 mg capsules, read-out: AUC0-24), 397 ng·h/mL; in data set [3] (single dose 2.5 mg capsule, read-out: AUC0-24) it was 640 ng·h/mL; in data set [3] (single dose 10 mg capsule, read-out: AUC0-24) it was 3080 ng·h/mL; in data set [3] (single dose 30 mg capsules, read-out: AUC0-24), 5020 ng·h/mL; in data set [3] (single dose 0.5 to 30 mg/day, read-out: AUC0-24 (range over dose groups)) it was 162 to 5020 ng·h/mL. Also, the AUC(0-t) amounted to 2860 ± 821 ng·h/mL in data set [5] (2.5 mg/day, multiple doses 2.5 mg/day) and 6380 ± 1030 ng·h/mL in data set [5] (5 mg/day, multiple doses 5.0 mg/day). The “serum potassium level (observation)” value is on record as “no elevated serum potassium level was observed” in data set [4]; “transient elevated serum potassium level observed in three subjects; also recorded: elevated serum potassium levels were observed in 3 subjects but were transient” in data set [6] (healthy subjects (6), multiple doses 5.0 mg/day); “no elevated serum potassium level observed; also recorded: elevated serum potassium levels were not observed” in data set [6] (setting [8]). For the same molecule, the “average steady-state AUC0-24 (AUCtau)” value in data set [6] (setting [8]) was 2863 ± 822 ng·h/mL; in data set [6] (healthy subjects, multiple doses 5.0 mg/day), 6373 ± 1026 ng·h/mL. For the same molecule, the “AUC individual variation: highest AUC vs lowest AUC subject” value in data set [6] (healthy volunteers, capsule, multiple doses 2.5 mg daily) came to 2.37 times.

(Values after patent US11806344B2, “Pharmaceutical composition comprising mineralocorticoid receptor antagonist and use thereof” (priority 2016, dated 2023).)
